Results from patent US20260070945A1, “MACROCYCLIC IMMUNOMODULATORS” (Bristol-Myers Squibb Company, priority 2022, published 2026).
Where a SMILES comes first, the peptide text is derived from it. Bridges are numbered along the chain shown (N, C = ends). [ ]: non-standard residue; d: D form. The star is where a group is joined. Phe(4-COOH) = N[C@@H](Cc1ccc(C(=O)O)cc1)C(=O)O; Bip = N[C@@H](Cc1ccc(-c2ccccc2)cc1)C(=O)O; 4Pal = N[C@@H](Cc1ccncc1)C(=O)O; Cha = N[C@@H](CC1CCCCC1)C(=O)O; Cit = NC(=O)NCCC[C@H](N)C(=O)O; Carboxymethyl = O=C(O)C*; NMeA = CN[C@@H](C)C(=O)O; Orn = NCCC[C@H](N)C(=O)O; Aun = NCCCCCCCCCCC(=O)O; Dab = NCC[C@H](N)C(=O)O; Dap = NC[C@H](N)C(=O)O; AEEA = NCCOCCOCC(=O)O

The compounds below were run against T1, PD-1/PD-L1 interaction (PE-labeled human PD-L1-Ig binding to Jurkat cell line over-expressing human PD-1) (Homo sapiens, UniProt Q15116) (assay: Jurkat-PD-1 Cell Binding High-Content Screening Assay (CBA)). Details: Jurkat-hPD-1 cells, PE-labeled PD-L1-Ig 20 nM final; read-out: Jurkat HPD1 PDL1 IC50.
T1 construct: expressed in transfected cells; host or cells: Jurkat
T1 sequence (Q15116 25-288): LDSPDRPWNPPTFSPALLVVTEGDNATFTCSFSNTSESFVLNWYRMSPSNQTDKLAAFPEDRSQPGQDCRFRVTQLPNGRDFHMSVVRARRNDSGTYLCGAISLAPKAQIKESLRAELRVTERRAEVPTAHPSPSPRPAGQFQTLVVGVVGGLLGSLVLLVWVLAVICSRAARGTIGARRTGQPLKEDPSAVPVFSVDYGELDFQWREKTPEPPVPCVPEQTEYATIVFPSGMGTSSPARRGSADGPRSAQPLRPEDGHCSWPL
Procedure, shortened: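 In this imaging assay, cells in 10% FCS medium see compound for 2 h at 37 °C and then labeled ligand at 20 nM final for 1 h. Paraformaldehyde fixation, Hoechst 33342 staining and dPBS washes precede image capture.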

SMILES | IC50 [nM]
CC(C)C[C@@H]1NC(=O)[C@H](Cc2c[nH]c3ccccc23)NC(=O)[C@H](CC(=O)O)NC(=O)[C@H](Cc2ccncc2)NC(=O)[C@H](Cc2ccc(OCC(=O)O)cc2)NC(=O)CSC[C@@H](C(=O)N[C@@H](CCCN)C(=O)NCCCCCCCCCCC(=O)O)NC(=O)[C@H](CO)NC(=O)[C@H](C(C)C)NC(=O)[C@H](CC2CCCCC2)NC(=O)[C@H](CCN)NC(=O)[C@@H](CC(C)C)NC(=O)[C@H](C)N(C)C(=O)[C@H](C(C)C)NC(=O)[C@H](Cc2ccc(-c3ccccc3)cc2)NC1=O [Example 1084] ({CH2CO}-Y(Carboxymethyl)[4Pal]DWL[Bip]V[NMeA][dL][Dab][Cha]VSC[Orn][Aun]-OH; thioether N-14) | 20.9
CC(C)C[C@@H]1NC(=O)[C@H](Cc2c[nH]c3ccccc23)NC(=O)[C@H](CC(=O)O)NC(=O)[C@H](Cc2ccncc2)NC(=O)[C@H](Cc2ccc(OCC(=O)O)cc2)NC(=O)CSC[C@@H](C(=O)N[C@@H](CCCCN)C(=O)NCCCCCCCCCCC(=O)O)NC(=O)[C@H](CO)NC(=O)[C@H](C(C)C)NC(=O)[C@H](CC2CCCCC2)NC(=O)[C@H](CCN)NC(=O)[C@@H](CC(C)C)NC(=O)[C@H](C)N(C)C(=O)[C@H](C(C)C)NC(=O)[C@H](Cc2ccc(-c3ccccc3)cc2)NC1=O [Example 1085] ({CH2CO}-Y(Carboxymethyl)[4Pal]DWL[Bip]V[NMeA][dL][Dab][Cha]VSCK[Aun]-OH; thioether N-14) | 15.4
CC(C)C[C@@H]1NC(=O)[C@H](Cc2c[nH]c3ccccc23)NC(=O)[C@H](CC(=O)O)NC(=O)[C@H](Cc2ccncc2)NC(=O)[C@H](Cc2ccc(OCC(=O)O)cc2)NC(=O)CSC[C@@H](C(=O)N[C@@H](CCCNC(=N)N)C(=O)NCCCCCCCCCCC(=O)O)NC(=O)[C@H](CO)NC(=O)[C@H](C(C)C)NC(=O)[C@H](CC2CCCCC2)NC(=O)[C@H](CCN)NC(=O)[C@@H](CC(C)C)NC(=O)[C@H](C)N(C)C(=O)[C@H](C(C)C)NC(=O)[C@H](Cc2ccc(-c3ccccc3)cc2)NC1=O [Example 1086] ({CH2CO}-Y(Carboxymethyl)[4Pal]DWL[Bip]V[NMeA][dL][Dab][Cha]VSCR[Aun]-OH; thioether N-14) | 31
CC(C)C[C@@H]1NC(=O)[C@H](Cc2c[nH]c3ccccc23)NC(=O)[C@H](CC(=O)O)NC(=O)[C@H](Cc2ccncc2)NC(=O)[C@H](Cc2ccc(OCC(=O)O)cc2)NC(=O)CSC[C@@H](C(=O)N[C@@H](Cc2c[nH]cn2)C(=O)NCCCCCCCCCCC(=O)O)NC(=O)[C@H](CO)NC(=O)[C@H](C(C)C)NC(=O)[C@H](CC2CCCCC2)NC(=O)[C@H](CCN)NC(=O)[C@@H](CC(C)C)NC(=O)[C@H](C)N(C)C(=O)[C@H](C(C)C)NC(=O)[C@H](Cc2ccc(-c3ccccc3)cc2)NC1=O [Example 1087] ({CH2CO}-Y(Carboxymethyl)[4Pal]DWL[Bip]V[NMeA][dL][Dab][Cha]VSCH[Aun]-OH; thioether N-14) | 33.2
CC(C)C[C@@H]1NC(=O)[C@H](Cc2c[nH]c3ccccc23)NC(=O)[C@H](CC(=O)O)NC(=O)[C@H](Cc2ccncc2)NC(=O)[C@H](Cc2ccc(OCC(=O)O)cc2)NC(=O)CSC[C@@H](C(=O)N[C@@H](CN)C(=O)NCCOCCOCC(=O)NCCCCCCCCCCC(=O)O)NC(=O)[C@H](CO)NC(=O)[C@H](C(C)C)NC(=O)[C@H](CC2CCCCC2)NC(=O)[C@H](CCN)NC(=O)[C@@H](CC(C)C)NC(=O)[C@H](C)N(C)C(=O)[C@H](C(C)C)NC(=O)[C@H](Cc2ccc(-c3ccccc3)cc2)NC1=O [Example 1088] ({CH2CO}-Y(Carboxymethyl)[4Pal]DWL[Bip]V[NMeA][dL][Dab][Cha]VSC[Dap][AEEA][Aun]-OH; thioether N-14) | 7.1
CC(C)C[C@@H]1NC(=O)[C@H](Cc2c[nH]c3ccccc23)NC(=O)[C@H](CC(=O)O)NC(=O)[C@H](Cc2ccncc2)NC(=O)[C@H](Cc2ccc(OCC(=O)O)cc2)NC(=O)CSC[C@@H](C(=O)N[C@@H](CCN)C(=O)NCCOCCOCC(=O)NCCCCCCCCCCC(=O)O)NC(=O)[C@H](CO)NC(=O)[C@H](C(C)C)NC(=O)[C@H](CC2CCCCC2)NC(=O)[C@H](CCN)NC(=O)[C@@H](CC(C)C)NC(=O)[C@H](C)N(C)C(=O)[C@H](C(C)C)NC(=O)[C@H](Cc2ccc(-c3ccccc3)cc2)NC1=O [Example 1089] ({CH2CO}-Y(Carboxymethyl)[4Pal]DWL[Bip]V[NMeA][dL][Dab][Cha]VSC[Dab][AEEA][Aun]-OH; thioether N-14) | 5.2
CC(C)C[C@@H]1NC(=O)[C@H](Cc2c[nH]c3ccccc23)NC(=O)[C@H](CC(=O)O)NC(=O)[C@H](Cc2ccncc2)NC(=O)[C@H](Cc2ccc(OCC(=O)O)cc2)NC(=O)CSC[C@@H](C(=O)N[C@@H](CCCN)C(=O)NCCOCCOCC(=O)NCCCCCCCCCCC(=O)O)NC(=O)[C@H](CO)NC(=O)[C@H](C(C)C)NC(=O)[C@H](CC2CCCCC2)NC(=O)[C@H](CCN)NC(=O)[C@@H](CC(C)C)NC(=O)[C@H](C)N(C)C(=O)[C@H](C(C)C)NC(=O)[C@H](Cc2ccc(-c3ccccc3)cc2)NC1=O [Example 1090] ({CH2CO}-Y(Carboxymethyl)[4Pal]DWL[Bip]V[NMeA][dL][Dab][Cha]VSC[Orn][AEEA][Aun]-OH; thioether N-14) | 8.3
CC(C)C[C@@H]1NC(=O)[C@H](Cc2c[nH]c3ccccc23)NC(=O)[C@H](CC(=O)O)NC(=O)[C@H](Cc2ccncc2)NC(=O)[C@H](Cc2ccc(OCC(=O)O)cc2)NC(=O)CSC[C@@H](C(=O)N[C@@H](CCCCN)C(=O)NCCOCCOCC(=O)NCCCCCCCCCCC(=O)O)NC(=O)[C@H](CO)NC(=O)[C@H](C(C)C)NC(=O)[C@H](CC2CCCCC2)NC(=O)[C@H](CCN)NC(=O)[C@@H](CC(C)C)NC(=O)[C@H](C)N(C)C(=O)[C@H](C(C)C)NC(=O)[C@H](Cc2ccc(-c3ccccc3)cc2)NC1=O [Example 1091] ({CH2CO}-Y(Carboxymethyl)[4Pal]DWL[Bip]V[NMeA][dL][Dab][Cha]VSCK[AEEA][Aun]-OH; thioether N-14) | 6.8
CC(C)C[C@@H]1NC(=O)[C@H](Cc2c[nH]c3ccccc23)NC(=O)[C@H](CC(=O)O)NC(=O)[C@H](Cc2ccncc2)NC(=O)[C@H](Cc2ccc(OCC(=O)O)cc2)NC(=O)CSC[C@@H](C(=O)N[C@@H](CCCNC(=N)N)C(=O)NCCOCCOCC(=O)NCCCCCCCCCCC(=O)O)NC(=O)[C@H](CO)NC(=O)[C@H](C(C)C)NC(=O)[C@H](CC2CCCCC2)NC(=O)[C@H](CCN)NC(=O)[C@@H](CC(C)C)NC(=O)[C@H](C)N(C)C(=O)[C@H](C(C)C)NC(=O)[C@H](Cc2ccc(-c3ccccc3)cc2)NC1=O [Example 1092] ({CH2CO}-Y(Carboxymethyl)[4Pal]DWL[Bip]V[NMeA][dL][Dab][Cha]VSCR[AEEA][Aun]-OH; thioether N-14) | 11.3
CC(C)C[C@@H]1NC(=O)[C@H](Cc2c[nH]c3ccccc23)NC(=O)[C@H](CC(=O)O)NC(=O)[C@H](Cc2ccc(C(=O)O)cc2)NC(=O)[C@H](Cc2ccc(OCC(=O)O)cc2)NC(=O)CSC[C@@H](C(=O)NCCOCCOCC(=O)NCCCCCCCCCCC(=O)O)NC(=O)[C@H](CN)NC(=O)[C@H](C(C)C)NC(=O)[C@H](CC2CCCCC2)NC(=O)[C@H](CCN)NC(=O)[C@@H](CC(C)C)NC(=O)[C@H](C)N(C)C(=O)[C@H](C(C)C)NC(=O)[C@H](Cc2ccc(-c3ccccc3)cc2)NC1=O [Example 1093] ({CH2CO}-Y(Carboxymethyl)[Phe(4-COOH)]DWL[Bip]V[NMeA][dL][Dab][Cha]V[Dap]C[AEEA][Aun]-OH; thioether N-14) | 14.6
CC(C)C[C@@H]1NC(=O)[C@H](Cc2c[nH]c3ccccc23)NC(=O)[C@H](CC(=O)O)NC(=O)[C@H](Cc2ccc(C(=O)O)cc2)NC(=O)[C@H](Cc2ccc(OCC(=O)O)cc2)NC(=O)CSC[C@@H](C(=O)N[C@@H](CN)C(=O)NCCCCCCCCCCC(=O)O)NC(=O)[C@H](CCCNC(N)=O)NC(=O)[C@H](C(C)C)NC(=O)[C@H](CC2CCCCC2)NC(=O)[C@H](CCN)NC(=O)[C@@H](CC(C)C)NC(=O)[C@H](C)N(C)C(=O)[C@H](C(C)C)NC(=O)[C@H](Cc2ccc(-c3ccccc3)cc2)NC1=O [Example 1098] ({CH2CO}-Y(Carboxymethyl)[Phe(4-COOH)]DWL[Bip]V[NMeA][dL][Dab][Cha]V[Cit]C[Dap][Aun]-OH; thioether N-14) | 8.6
CC(C)C[C@@H]1NC(=O)[C@H](Cc2c[nH]c3ccccc23)NC(=O)[C@H](CC(=O)O)NC(=O)[C@H](Cc2ccc(C(=O)O)cc2)NC(=O)[C@H](Cc2ccc(OCC(=O)O)cc2)NC(=O)CSC[C@@H](C(=O)N[C@@H](CCCCN)C(=O)NCCCCCCCCCCC(=O)O)NC(=O)[C@H](CCCNC(N)=O)NC(=O)[C@H](C(C)C)NC(=O)[C@H](CC2CCCCC2)NC(=O)[C@H](CCN)NC(=O)[C@@H](CC(C)C)NC(=O)[C@H](C)N(C)C(=O)[C@H](C(C)C)NC(=O)[C@H](Cc2ccc(-c3ccccc3)cc2)NC1=O [Example 1099] ({CH2CO}-Y(Carboxymethyl)[Phe(4-COOH)]DWL[Bip]V[NMeA][dL][Dab][Cha]V[Cit]CK[Aun]-OH; thioether N-14) | 9.8
CC(C)C[C@@H]1NC(=O)[C@H](Cc2c[nH]c3ccccc23)NC(=O)[C@H](CC(=O)O)NC(=O)[C@H](Cc2ccc(C(=O)O)cc2)NC(=O)[C@H](Cc2ccc(OCC(=O)O)cc2)NC(=O)CSC[C@@H](C(=O)N[C@@H](CCCNC(=N)N)C(=O)NCCCCCCCCCCC(=O)O)NC(=O)[C@H](CCCNC(N)=O)NC(=O)[C@H](C(C)C)NC(=O)[C@H](CC2CCCCC2)NC(=O)[C@H](CCN)NC(=O)[C@@H](CC(C)C)NC(=O)[C@H](C)N(C)C(=O)[C@H](C(C)C)NC(=O)[C@H](Cc2ccc(-c3ccccc3)cc2)NC1=O [Example 1100] ({CH2CO}-Y(Carboxymethyl)[Phe(4-COOH)]DWL[Bip]V[NMeA][dL][Dab][Cha]V[Cit]CR[Aun]-OH; thioether N-14) | 19.8
